In patent publication US20220090998A1, “URINE STABILIZATION” (QIAGEN GmbH, priority 2019, published 2022):

What was measured:
[1] = system: human Y-chromosomale DYS14 gene, 66 bp amplicon; test: Real time PCR for Y-chromosomal DYS14 DNA: preservation of male cell-free DNA spiked into female urine
Protocol: (§1) Cell-free DNA from 4-4.8 ml stabilized or unstabilized urine was isolated with the QIAsymphony PAXgene Blood ccfDNA Kit (QIAGEN kit) protocol.
To measure the degradation of cell-free DNA, the relative yield of male cell-free DNA spiked into female samples was analyzed. A real time PCR assay on RotorGene Q (QIAGEN GmbH) was performed with 8 μl of eluate.
Urine from one donor was centrifuged twice to remove all cells from the urine for spike-in into female urine. Urine was collected in larger bottles from two female and two male donors. In case of the two female donors 25 ml centrifuged and therefore cell-free male urine was added to the 200 ml female urine. Approximately 120 ml urine from each donor was filled into BD Vacutainer Urine Collection Cups. Urine was transferred from the cups into two spray dried EDTA tubes, one PAXgene Blood ccfDNA tube and one Streck cell-free DNA BCT tube per donor. One of the EDTA tubes per donor was opened and 1.7 ml of stabilization reagent R1 was added. All tubes were carefully inverted 5 times to mix the urine with the components.
(§2) Cell-free DNA was subsequently purified on the QIAsymphony either directly after collection (t0) or after 1, 3 and 9 days incubation at room temperature. […] Relative yield of Y-chromosomale DYS14 DNA was determined from duplicate samples by real time PCR (no PCR replicates).
Urine from one donor was centrifuged twice to remove all cells from the urine for spike in into female urine. 200 ml urine each from six female donors were collected in large bottles and mixed with 25 ml cell-free male urine directly after collection. Aliquots of 10 ml urine ([…]) were mixed with 1.7 ml reagent. […] All samples were processed in duplicates. Real time PCR for y-chromosomale DYS14 DNA was performed from duplicate samples.
To analyse the effect of pH on cell-free DNA preservation, urine from one donor was centrifuged twice to remove all cells from the urine for spike in into female urine. 200 ml urine each from four female donors were collected in large bottles and mixed with 25 ml cell-free male urine directly after collection. […]

[2] = system: human 18S rDNA gene, 66 bp amplicon; test: Real time PCR of 18S rDNA 66 bp fragment in cell-free DNA from urine
Protocol: as §1
Total quantification was achieved by comparison with a standard curve generated with human genomic DNA samples equivalent to 10.000 to 10 copies of human 18s rDNA gene.
Quantification of the 500 bp was used to determine the amount of 18S rDNA copies which derived from apoptotic or mechanically lysed urine cells. […] Therefore 500 bp fragments can be considered to be derived from apoptotic, lysed or otherwise destructed urine cells.
All samples were processed in duplicates.
as §2
200 ml urine each from three donors was collected. […] For processing, the samples were centrifuged 15 min at 1900×g. Supernatant was centrifuged again (10 min 1900×g) and the supernatant from the second centrifugation was used for duplicate purification of cell-free DNA on a QIAsymphony system. The cell pellet obtained after the first centrifugation was resolved in 300 μl PBS. 200 μl of the resuspended cell pellet was used for extraction of the genomic DNA using the QIAamp Blood Mini kit. The remaining 100 μl were centrifuged on a glass slide and stained with Papanicolaou (see FIG. 7). […] Genomic DNA yield was measured on a Nanodrop instrument.
Supernatant was centrifuged again (10 min at 1900×g) and the supernatant from the second centrifugation was used for duplicate purification of cell-free DNA on the QIAsymphony.
For EDTA stabilized samples the overall increase in DNA can be deduced from the observed degradation (Dys 14—see FIG. 16) and increase (18s—see FIGS. 14 and 15).

[3] = system: human 18S rDNA gene, 500 bp amplicon; conditions: t0 to t4 d storage (FIG. 15)
Protocol: Cell-free DNA from 4-4.8 ml stabilized or unstabilized urine was isolated with the QIAsymphony PAXgene Blood ccfDNA Kit (QIAGEN kit) protocol. The QIAsymphony robot mixed urine with proteinase K, binding buffer and magnetic beads. Beads with bound DNA were washed three times and DNA was eluted using 60 μl elution buffer.
To measure the amount of cell-free DNA a real time PCR assay on Abi Prism HT7900 (Life technologies) was performed with 8 μl of eluate. In a 20 μl assay volume using QuantiTect Multiplex PCR Kit reagents (QIAGEN GmbH) two fragments of the human 18S rDNA gene were amplified in a multiplex PCR. Total quantification was achieved by comparison with a standard curve generated with human genomic DNA samples equivalent to 10.000 to 10 copies of human 18s rDNA gene.
Quantification of the 66 bp fragment was used to reflect the total amount of 18S rDNA copies in the urine. Quantification of the 500 bp was used to determine the amount of 18S rDNA copies which derived from apoptotic or mechanically lysed urine cells.
200 ml urine each from four female and two male donors was collected. Aliquots of 10 ml urine were mixed within 15 min after sampling with 1.7 ml PBS or stabilizing reagent. […] The copy numbers of 18s rDNA were determined from duplicate samples in triplicates by real time PCR.

In the case of `O=C(O)CN(CCN(CC(=O)O)CC(=O)O)CC(=O)O` [EDTA, Ethylenediaminetetraacetic acid], the “preservation of spiked in male cell-free DNA (DYS14 delta Ct versus t0), words” value ([1]; Example 2, 2 female donors, 1, 3 and 9 days at RT (FIG. 4)) is reported as “neither prevents sufficiently cell free DNA degradation”, the “Delta Ct t0-t4 d Dys 14” value ([1]; male cell-free urine spiked in female urine, 4 days storage at RT (FIG. 16)) is reported as ~2 and the “Reduction (of DYS14 DNA, from Delta Ct)” value ([1]; t0 to t4 d at RT) is reported as 4 fold. The “Delta Ct t0-t4 d 18 s 66 bp” value ([2]; 4 days storage at RT (FIG. 14)) was 2, the “total DNA in urine over storage (18s rDNA 66 bp copies versus t0), words” value ([2]; Example 2, BD Vacutainer cup to tubes, 1, 3 and 9 days at RT, 4 donors (FIG. 3)) was “nor an increase in total DNA comprised in the urine due to DNA release from cells” and the “Overall increase (in DNA resulting from cells)” value ([2]; deduced from observed degradation (Dys 14) and increase (18s), t0 to t4 d) was 4 × 4 = 16 fold. For the same compound, the “Increase (of 18S 66 bp DNA, from Delta Ct)” value ([2]; t0 to t4 d at RT) was 4 fold, the “change in the 66 bp fragment” value ([2]; t0 to t4 d storage (FIG. 14)) was “small increase” and the “decrease in the 500 bp fragment” value [3] was “approx. 32 fold”.
